Measurements as given in patent publication US20230398130A1, “METHODS AND COMPOSITIONS FOR DIFFERENTIATING STEM CELLS” (Massachusetts Institute of Technology, priority 2020, published 2023).

Key:
ISC-enriched organoids [1] = experiment: Primary screen, 384-well 2.5-D organoid differentiation (ENR+CD, 6 days): basal lysozyme secretion (LYZ.NS); type: cell-based, murine; conditions: primary screen; for Dose.FC.LYZ.NS: FC vs plate median; for Z.LYZ.NS: standard z score; for SSMD.LYZ.NS: strictly standardized mean difference
Excerpt: (§1) High-throughput screening.

ISC-enriched organoids [2] = experiment: Primary screen, 384-well 2.5-D organoid differentiation (ENR+CD, 6 days): carbachol-induced lysozyme secretion (LYZ.S); type: cell-based, murine; conditions: primary screen; for Dose.FC.LYZ.S: FC vs plate median; for Z.LYZ.S: standard z score; for SSMD.LYZ.S: strictly standardized mean difference
Excerpt: as §1

ISC-enriched organoids [3] = experiment: Primary screen, 384-well 2.5-D organoid differentiation (ENR+CD, 6 days, Target Selective Inhibitor Library, vs whole-plate median): ATP (CellTiter-Glo 3D, CTG); conditions: primary screen; for Dose.FC.CTG: FC vs plate median; for Z.CTG: standard z score; for SSMD.CTG: strictly standardized mean difference
[4] = 1st of the 4 dose lines of the treatment (dose not given)
[5] = 2nd of the 4 dose lines of the treatment (dose not given)
[6] = 3rd of the 4 dose lines of the treatment (dose not given)
[7] = 4th of the 4 dose lines of the treatment (dose not given)

| SMILES | SSMD.LYZ.NS (ISC-enriched organoids [1]; [4]) | SSMD.LYZ.NS (ISC-enriched organoids [1]; [5]) | SSMD.LYZ.NS (ISC-enriched organoids [1]; [6]) | SSMD.LYZ.NS (ISC-enriched organoids [1]; [7]) | Z.LYZ.S (ISC-enriched organoids [2]; [4]) | Z.LYZ.S (ISC-enriched organoids [2]; [5]) | Z.LYZ.S (ISC-enriched organoids [2]; [6]) | Z.LYZ.S (ISC-enriched organoids [2]; [7]) | SSMD.LYZ.S (ISC-enriched organoids [2]; [4]) | SSMD.LYZ.S (ISC-enriched organoids [2]; [5]) | SSMD.LYZ.S (ISC-enriched organoids [2]; [6]) | SSMD.LYZ.S (ISC-enriched organoids [2]; [7]) | Z.CTG (ISC-enriched organoids [3]; Dose 0.08 uM) | Z.CTG (ISC-enriched organoids [3]; Dose 0.40 uM) | Z.CTG (ISC-enriched organoids [3]; Dose 2.00 uM) | Z.CTG (ISC-enriched organoids [3]; Dose 10.00 uM) | SSMD.CTG (ISC-enriched organoids [3]; [4]) | SSMD.CTG (ISC-enriched organoids [3]; [5]) | SSMD.CTG (ISC-enriched organoids [3]; [6]) | SSMD.CTG (ISC-enriched organoids [3]; [7]) | also measured |
| --- | --- | --- | --- | --- | --- | --- | --- | --- | --- | --- | --- | --- | --- | --- | --- | --- | --- | --- | --- | --- | --- |
| COc1cc(-c2ncn(/C=C\C(=O)OC(C)C)n2)cc(C(F)(F)F)c1 [KPT-185] | −0.049 | 0.872 | −1.718 | −0.298 | −0.096 | 1.420 | −2.085 | −0.989 | −0.092 | 0.978 | −1.455 | −0.431 | 0.277 | 0.248 | −2.377 | −2.041 | 0.296 | 0.270 | −1.033 | −0.723 | Dose.FC.LYZ.NS (ISC-enriched organoids [1]; Dose 0.08 uM): −0.006 log 2 fold change; Z.LYZ.NS (ISC-enriched organoids [1]; Dose 0.08 uM): −0.049; Dose.FC.LYZ.NS (ISC-enriched organoids [1]; Dose 0.40 uM): 0.097 log 2 fold change; Z.LYZ.NS (ISC-enriched organoids [1]; Dose 0.40 uM): 0.846; Dose.FC.LYZ.NS (ISC-enriched organoids [1]; Dose 2.00 uM): −0.209 log 2 fold change; Z.LYZ.NS (ISC-enriched organoids [1]; Dose 2.00 uM): −1.820; Dose.FC.LYZ.NS (ISC-enriched organoids [1]; Dose 10.00 uM): −0.085 log 2 fold change; Z.LYZ.NS (ISC-enriched organoids [1]; Dose 10.00 uM): −0.744; Dose.FC.LYZ.S (ISC-enriched organoids [2]; Dose 0.08 uM): −0.015 log 2 fold change; Dose.FC.LYZ.S (ISC-enriched organoids [2]; Dose 0.40 uM): 0.220 log 2 fold change; Dose.FC.LYZ.S (ISC-enriched organoids [2]; Dose 2.00 uM): −0.322 log 2 fold change; Dose.FC.LYZ.S (ISC-enriched organoids [2]; Dose 10.00 uM): −0.153 log 2 fold change; Dose.FC.CTG (ISC-enriched organoids [3]; Dose 0.08 uM): 0.116 log 2 fold change; Dose.FC.CTG (ISC-enriched organoids [3]; Dose 0.40 uM): 0.104 log 2 fold change; Dose.FC.CTG (ISC-enriched organoids [3]; Dose 2.00 uM): −0.995 log 2 fold change; Dose.FC.CTG (ISC-enriched organoids [3]; Dose 10.00 uM): −0.855 log 2 fold change |
| O=C(/C=C\n1cnc(-c2cc(C(F)(F)F)cc(C(F)(F)F)c2)n1)N1CC(F)(F)C1 [KPT-276] | 0.486 | 0.742 | −1.426 | −1.384 | 0.860 | 0.958 | −2.111 | −2.335 | 0.806 | 0.771 | −1.399 | −1.417 | 0.399 | −0.104 | −0.986 | −1.680 | 0.494 | −0.146 | −0.772 | −2.520 | Dose.FC.LYZ.NS (ISC-enriched organoids [1]; Dose 0.08 uM): 0.056 log 2 fold change; Z.LYZ.NS (ISC-enriched organoids [1]; Dose 0.08 uM): 0.492; Dose.FC.LYZ.NS (ISC-enriched organoids [1]; Dose 0.40 uM): 0.086 log 2 fold change; Z.LYZ.NS (ISC-enriched organoids [1]; Dose 0.40 uM): 0.746; Dose.FC.LYZ.NS (ISC-enriched organoids [1]; Dose 2.00 uM): −0.224 log 2 fold change; Z.LYZ.NS (ISC-enriched organoids [1]; Dose 2.00 uM): −1.947; Dose.FC.LYZ.NS (ISC-enriched organoids [1]; Dose 10.00 uM): −0.256 log 2 fold change; Z.LYZ.NS (ISC-enriched organoids [1]; Dose 10.00 uM): −2.230; Dose.FC.LYZ.S (ISC-enriched organoids [2]; Dose 0.08 uM): 0.133 log 2 fold change; Dose.FC.LYZ.S (ISC-enriched organoids [2]; Dose 0.40 uM): 0.148 log 2 fold change; Dose.FC.LYZ.S (ISC-enriched organoids [2]; Dose 2.00 uM): −0.327 log 2 fold change; Dose.FC.LYZ.S (ISC-enriched organoids [2]; Dose 10.00 uM): −0.361 log 2 fold change; Dose.FC.CTG (ISC-enriched organoids [3]; Dose 0.08 uM): 0.167 log 2 fold change; Dose.FC.CTG (ISC-enriched organoids [3]; Dose 0.40 uM): −0.044 log 2 fold change; Dose.FC.CTG (ISC-enriched organoids [3]; Dose 2.00 uM): −0.413 log 2 fold change; Dose.FC.CTG (ISC-enriched organoids [3]; Dose 10.00 uM): −0.703 log 2 fold change |
| C[C@@H]1CN(CC(=O)Nc2ccc3c(c2)Cc2cccc(-c4cc(=O)cc(N5CCOCC5)o4)c2S3)C[C@H](C)O1 [KU-60019] | 0.305 | −0.014 | −0.103 | −0.570 | 1.490 | 0.474 | −0.317 | −1.436 | 0.938 | 0.312 | −0.261 | −0.923 | 0.273 | 0.094 | 0.290 | −1.246 | 0.371 | 0.118 | 0.175 | −0.916 | – |
| COC(=O)CCSCc1ccc(-c2onc(C)c2NC(=O)OC(C)c2ccccc2Cl)cc1 (centres unmarked) [Ki16198] | 0.052 | −0.083 | 0.211 | −0.914 | 0.176 | 0.204 | −0.095 | −0.239 | 0.136 | 0.231 | −0.105 | −0.262 | −0.026 | −0.258 | −0.078 | 0.052 | −0.028 | −0.359 | −0.118 | 0.073 | Dose.FC.LYZ.NS (ISC-enriched organoids [1]; Dose 0.08 uM): 0.005 log 2 fold change; Z.LYZ.NS (ISC-enriched organoids [1]; Dose 0.08 uM): 0.044; Dose.FC.LYZ.NS (ISC-enriched organoids [1]; Dose 0.40 uM): −0.009 log 2 fold change; Z.LYZ.NS (ISC-enriched organoids [1]; Dose 0.40 uM): −0.076; Dose.FC.LYZ.NS (ISC-enriched organoids [1]; Dose 2.00 uM): 0.060 log 2 fold change; Z.LYZ.NS (ISC-enriched organoids [1]; Dose 2.00 uM): 0.519; Dose.FC.LYZ.NS (ISC-enriched organoids [1]; Dose 10.00 uM): −0.103 log 2 fold change; Z.LYZ.NS (ISC-enriched organoids [1]; Dose 10.00 uM): −0.899; Dose.FC.LYZ.S (ISC-enriched organoids [2]; Dose 0.08 uM): 0.027 log 2 fold change; Dose.FC.LYZ.S (ISC-enriched organoids [2]; Dose 0.40 uM): 0.031 log 2 fold change; Dose.FC.LYZ.S (ISC-enriched organoids [2]; Dose 2.00 uM): −0.015 log 2 fold change; Dose.FC.LYZ.S (ISC-enriched organoids [2]; Dose 10.00 uM): −0.037 log 2 fold change; Dose.FC.CTG (ISC-enriched organoids [3]; Dose 0.08 uM): −0.011 log 2 fold change; Dose.FC.CTG (ISC-enriched organoids [3]; Dose 0.40 uM): −0.108 log 2 fold change; Dose.FC.CTG (ISC-enriched organoids [3]; Dose 2.00 uM): −0.033 log 2 fold change; Dose.FC.CTG (ISC-enriched organoids [3]; Dose 10.00 uM): 0.022 log 2 fold change |
| Cc1noc(-c2ccc(CSCCC(=O)O)cc2)c1NC(=O)OC(C)c1ccccc1Cl (centres unmarked) [Ki16425] | 0.006 | 0.483 | −0.072 | −0.246 | 0.142 | 0.739 | −0.135 | −0.459 | 0.130 | 0.421 | −0.133 | −0.394 | −0.121 | −0.005 | −0.185 | −0.394 | −0.145 | −0.008 | −0.226 | −0.527 | Dose.FC.LYZ.NS (ISC-enriched organoids [1]; Dose 0.08 uM): 0.001 log 2 fold change; Z.LYZ.NS (ISC-enriched organoids [1]; Dose 0.08 uM): 0.005; Dose.FC.LYZ.NS (ISC-enriched organoids [1]; Dose 0.40 uM): 0.117 log 2 fold change; Z.LYZ.NS (ISC-enriched organoids [1]; Dose 0.40 uM): 1.017; Dose.FC.LYZ.NS (ISC-enriched organoids [1]; Dose 2.00 uM): −0.008 log 2 fold change; Z.LYZ.NS (ISC-enriched organoids [1]; Dose 2.00 uM): −0.069; Dose.FC.LYZ.NS (ISC-enriched organoids [1]; Dose 10.00 uM): −0.038 log 2 fold change; Z.LYZ.NS (ISC-enriched organoids [1]; Dose 10.00 uM): −0.327; Dose.FC.LYZ.S (ISC-enriched organoids [2]; Dose 0.08 uM): 0.022 log 2 fold change; Dose.FC.LYZ.S (ISC-enriched organoids [2]; Dose 0.40 uM): 0.114 log 2 fold change; Dose.FC.LYZ.S (ISC-enriched organoids [2]; Dose 2.00 uM): −0.021 log 2 fold change; Dose.FC.LYZ.S (ISC-enriched organoids [2]; Dose 10.00 uM): −0.071 log 2 fold change; Dose.FC.CTG (ISC-enriched organoids [3]; Dose 0.08 uM): −0.051 log 2 fold change; Dose.FC.CTG (ISC-enriched organoids [3]; Dose 0.40 uM): −0.002 log 2 fold change; Dose.FC.CTG (ISC-enriched organoids [3]; Dose 2.00 uM): −0.078 log 2 fold change; Dose.FC.CTG (ISC-enriched organoids [3]; Dose 10.00 uM): −0.165 log 2 fold change |
